Laboratory results as given in patent publication US20090306031A1, “5alpha-ANDROSTANE-3,6,17-TRIONE (KNELLER'S TRIONE) AND METHODS OF USE THEREFOR” (priority 2009, published 2009).

Columns and labels:
[1] = Pilot study: adverse events and safety observations in study subjects; type: in vivo, human
[2] = Pilot study: sex hormone profile in men after oral daily Kneller's Trione; type: in vivo, human; conditions: for ending testosterone-to-estradiol ratio: day 14, ratio to 1; for change of testosterone-to-estradiol ratio: starting vs ending (14 days); for ESTRADIOL / BIOAVAILABLE TESTOSTERONE / DHT / TOTAL TESTOSTERONE: person
Description: The first study subject was a person who was dosed once per day orally with 25 mg per day of Kneller's Trione.
The second study subject was a person who was dosed once per day orally with 50 mg per day of Kneller's Trione.
The third study subject was a person who was dosed once per day orally with 100 mg per day of Kneller's Trione.

[3] = 25 mg daily oral, 14 days vs baseline
[4] = 50 mg daily oral, 14 days vs baseline
[5] = 100 mg daily oral, 14 days vs baseline

C[C@]12CCC(=O)C[C@@H]1C(=O)C[C@@H]1[C@@H]2CC[C@]2(C)C(=O)CC[C@@H]12 [Kneller's Trione, 5α-androstane-3,6,17-trione]
adverse event ([1]; 750 mg per day oral, subject withdrew from the pilot study): occurrence of a priaprism | liver function, kidney function, blood lipid levels, blood pressure, heart rate, respirations, body temperature ([1]; every subject, frequent intervals, oral daily dosages 25 mg to 750 mg): within medically established normal ranges and values | other adverse events noted by any study subject ([1]; oral daily dosages 25 mg to 750 mg): No other adverse events were noted | increase in plasma bioavailable testosterone [2, 3]: 20% | increase in plasma total testosterone [2, 3]: 13% | reduction in plasma estradiol [2, 3]: 51% | ending testosterone-to-estradiol ratio ([2]; 25 mg daily oral, starting ratio 133.83 to 1): 308.26 | change of testosterone-to-estradiol ratio ([2]; 25 mg daily oral): 130% | change in plasma estradiol [2, 4]: no change | increase in plasma bioavailable testosterone [2, 4]: 21% | increase in plasma total testosterone [2, 4]: 28% | ending testosterone-to-estradiol ratio ([2]; 50 mg daily oral, starting ratio 238.06 to 1): 305.56 | change of testosterone-to-estradiol ratio ([2]; 50 mg daily oral): 28% | increase in plasma bioavailable testosterone [2, 5]: 146% | increase in plasma total testosterone [2, 5]: 93% | reduction in plasma estradiol [2, 5]: 26% | ending testosterone-to-estradiol ratio ([2]; 100 mg daily oral, starting ratio 102.17 to 1): 266.18 | change of testosterone-to-estradiol ratio ([2]; 100 mg daily oral): 161% | added benefit over a dose of 100 mg per day ([2]; 250 mg per day oral): did not seem to offer any added benefit | total testosterone and bioavailable testosterone levels ([2]; 250 mg per day oral): raised total testosterone and bioavailable testosterone levels substantially and safely | added benefit over a dose of 100 mg per day ([2]; 500 mg per day oral): did not seem to offer any added benefit | total testosterone and bioavailable testosterone levels ([2]; 500 mg per day oral): raised total testosterone and bioavailable testosterone levels substantially and safely | added benefits of high dosage ([2]; 750 mg per day oral): no added benefits were seen | plasma testosterone levels in men ([2]; general statement, dose not stated): substantial and significant increases | plasma estradiol levels in men ([2]; general statement, relative to accepted normal limits): no changes outside the accepted normal limits | increase of plasma free testosterone levels ([2]; oral administration, dose not stated): more than 100% | ESTRADIOL ([2]; 25 mg per day oral single dose, DAY 7, baseline 47 pg/mL): 28 pg/mL | BIOAVAILABLE TESTOSTERONE ([2]; 25 mg per day oral single dose, DAY 7, baseline 843 pg/mL): 966 pg/mL | DHT ([2]; 25 mg per day oral single dose, DAY 7, baseline 42 ng/dL): 36 ng/dL | TOTAL TESTOSTERONE ([2]; 25 mg per day oral single dose, DAY 7, baseline (day 0) 6,290 pg/mL): 6,400 pg/mL | ESTRADIOL ([2]; 25 mg per day oral single dose, DAY 14, baseline 47 pg/mL): 23 pg/mL | BIOAVAILABLE TESTOSTERONE ([2]; 25 mg per day oral single dose, DAY 14, baseline 843 pg/mL): 1,014 pg/mL | DHT ([2]; 25 mg per day oral single dose, DAY 14, baseline 42 ng/dL): 49 ng/dL | TOTAL TESTOSTERONE ([2]; 25 mg per day oral single dose, DAY 14, baseline (day 0) 6,290 pg/mL): 7,090 pg/mL | ESTRADIOL ([2]; 50 mg per day oral single dose, DAY 7, baseline 36 pg/mL): 35 pg/mL | BIOAVAILABLE TESTOSTERONE ([2]; 50 mg per day oral single dose, DAY 7, baseline 169.7 pg/mL): 209 pg/mL | DHT ([2]; 50 mg per day oral single dose, DAY 7, baseline 47 ng/dL): 46 ng/dL | TOTAL TESTOSTERONE ([2]; 50 mg per day oral single dose, DAY 7, baseline (day 0) 8,570 pg/mL): 11,000 pg/mL | ESTRADIOL ([2]; 50 mg per day oral single dose, DAY 14, baseline 36 pg/mL): 36 pg/mL | BIOAVAILABLE TESTOSTERONE ([2]; 50 mg per day oral single dose, DAY 14, baseline 169.7 pg/mL): 209 pg/mL | DHT ([2]; 50 mg per day oral single dose, DAY 14, baseline 47 ng/dL): 49 ng/dL | TOTAL TESTOSTERONE ([2]; 50 mg per day oral single dose, DAY 14, baseline (day 0) 8,570 pg/mL): 11,000 pg/mL | ESTRADIOL ([2]; 100 mg per day oral single dose, DAY 7, baseline 46 pg/mL): 44 pg/mL | BIOAVAILABLE TESTOSTERONE ([2]; 100 mg per day oral single dose, DAY 7, baseline 794 pg/mL): 1,432 pg/mL | DHT ([2]; 100 mg per day oral single dose, DAY 7, baseline 35 ng/dL): 48 ng/dL | TOTAL TESTOSTERONE ([2]; 100 mg per day oral single dose, DAY 7, baseline (day 0) 4,700 pg/mL): 7,910 pg/mL | ESTRADIOL ([2]; 100 mg per day oral single dose, DAY 14, baseline 46 pg/mL): 34 pg/mL | BIOAVAILABLE TESTOSTERONE ([2]; 100 mg per day oral single dose, DAY 14, baseline 794 pg/mL): 1,957 pg/mL | DHT ([2]; 100 mg per day oral single dose, DAY 14, baseline 35 ng/dL): 41 ng/dL | TOTAL TESTOSTERONE ([2]; 100 mg per day oral single dose, DAY 14, baseline (day 0) 4,700 pg/mL): 9,050 pg/mL
